Assay results: patent publication US8507411B2, “Neoglycorandomization and digitoxin analogs” (priority 2004, dated 2013)
Like-named read-outs stand apart in the source and are kept apart here.

Columns and labels:
Hep3B = assay: High-throughput calcein AM cytotoxicity assay, Hep3B; format: cell-based, human; details: Hep 3B cells
From the text: (§1) Standard errors are depicted with error bars.

NCI-H460 = assay: High-throughput calcein AM cytotoxicity assay, NCI-H460; format: cell-based, human; details: NCI-H460 cells
From the text: as §1

NmuMG = assay: cells; format: cell-based, mouse
From the text: (§2) In the assay, live cells were distinguished by the presence of a ubiquitous intracellular enzymatic activity which converts the non-fluorescent cell-permeable molecule calcein AM to the intensely fluorescent molecule calcein, which is retained within live cells. The IC50 value for each library member represents at least six replicates of dose-response experiments conducted over five concentrations using two-fold dilutions. […] Standard errors are depicted with error bars. Numerical values and corresponding error values can be found in Table 4. Du145: […]; MCF7: human breast carcinoma; HCT-116: human colon carcinoma, Hep3B: human liver carcinoma; SF-268: human CNS glioblastoma; SK-OV-3: human ovary adenocarcinoma; NCI-H460: human lung carcinoma; A549: human lung adenocarcinoma; NCI/ADR-RES: human breast carcinoma; NmuMG: mouse mammary normal epithelial.
(§3) Cell Culture: All cell lines except NmuMG were maintained in RPMI 1640 medium from InVitrogen (Cat No. 11875-085) supplemented with 10% w/v fetal bovine serum (FBS) from ICN (Cat No. 2916154) and penicillin-streptomycin (PS) (100 U/mL and 100 μg/mL) from InVitrogen (Cat No. 15140-122). NmuMG cells were maintained in DMEM medium from InVitrogen (Cat No. 11965-084) supplemented with 10% w/v fetal bovine serum (FBS) from ICN (Cat No. 2916154), 10 μg/ml insulin (InVitrogen Cat No 12585-014), and penicillin-streptomycin (PS) (100 U/mL and 100 μg/mL) from InVitrogen (Cat No. 15140-122). Cells were harvested by trypsinization using 0.25% w/v trypsin and 0.1% w/v EDTA from InVitrogen (Cat No. 15-050-057) and then counted in a hemocytometer in duplicate with better than 10% agreement in field counts. Cells were plated at a cell density of 10,000-15,000 cells/well of each Corning Costar 96-well black tissue culture treated microtiter plate (Fisher Cat No. 07-200-627). Cells were grown for 1 h at 37° C., with 5% CO2 in a humidified incubator to allow cell attachment to occur before compound addition.
(§4) Library Member Handling and Preparation for Cytotoxicity Assays: Library members were stored at −20° C. under dessicating conditions before the assay. Library member stocks (100×) were prepared in Corning Costar polypropylene 96-well V-bottom polypropylene microtiter plates (Fisher Cat No. 07-200-695). Five serial 1:2 dilutions were made with anhydrous DMSO at 100× the final concentration used in the assay.
(§5) Library Member Addition: The library member-containing plates were diluted 1:10 with complete cell culture media. The 10× stocks (10 μL) were added to the attached cells using a Biomek FX liquid handler (Beckman-Coulter). Library member stocks (10 μL) were added to 90 μL of cells in each plate to insure full mixing of stocks with culture media using a Beckman FX liquid handler with 96-well head.
(§6) Determination of Cytotoxicity: Cells were incubated with the library members for 72 h before fluorescence reading. Test plates were removed from the incubator and washed 1× in sterile PBS to remove serum containing calcium esterases. Calcein AM reagent (30 μL, […]) was added and the cells were incubated for 30 min at 37° C. Plates were read for emission using a fluorescein filter (excitation 485 nm, emission 535 nm).
(§7) IC50 Calculation: For each library member, at least six dose response experiments were conducted. […] To calculate IC50, percent inhibitions were plotted as a function of log [concentration] and then fit to a four-parameter logistic model that allowed for a variable Hill slope using XLfit 4.1.
(§8) Cytotoxicity Assays. All cell lines except NmuMG were maintained in RPMI 1640 medium supplemented with 10% w/v fetal bovine serum (FBS) and penicillin-streptomycin (PS) (100 U/mL and 100 μg/mL).

A549 = assay: High-throughput calcein AM cytotoxicity assay, A549; format: cell-based, human; details: A549 cells
From the text: as §1

SF-268 = assay: cells; format: cell-based, human; details: SF-268 cells
From the text: as §2, §3, §4, §5, §6, §7, §8

NCI/ADR-RES = assay: cells; format: cell-based, human; details: NCI/ADR-RES cells
From the text: as §2, §3, §4, §5, §6, §7, §8

SK-OV-3 = assay: cells; format: cell-based, human; details: SK-OV-3 cells
From the text: as §2, §3, §4, §5, §6, §7, §8

Du145 = assay: High-throughput calcein AM cytotoxicity assay, Du145; format: cell-based, human; details: Du145 cells
From the text: as §1

MCF7 = assay: High-throughput calcein AM cytotoxicity assay, MCF7; format: cell-based, human; details: MCF7 cells
From the text: as §1

HCT-116 = assay: High-throughput calcein AM cytotoxicity assay, HCT-116; format: cell-based, human; details: HCT-116 cells
From the text: as §1

[1] = NmuMG mouse mammary normal epithelial control line, read-out: IC50, NmuMG
[2] = NmuMG cells (mouse mammary normal epithelial control line), read-out: IC50

| Compound | IC50 (Hep3B; read-out: IC50, Hep 3B) [µM] | IC50 (NCI-H460; read-out: IC50, NCI-H460) [µM] | IC50 (NmuMG; [1]) [µM] | IC50 (A549; read-out: IC50, A549) [µM] | IC50 (SF-268; read-out: IC50, SF-268) [µM] | IC50 (NCI/ADR-RES; read-out: IC50, NCI/ADR-RES) [µM] | IC50 (SK-OV-3; read-out: IC50, SK-OV-3) [µM] | IC50 (Du145; read-out: IC50, Du145) [µM] | IC50 (MCF7; read-out: IC50, MCF7) [µM] | IC50 (HCT-116; read-out: IC50, HCT-116) [µM] | IC50 (Hep3B; read-out: IC50) [µM] | IC50 (NCI-H460; read-out: IC50) [µM] | IC50 (NmuMG; [2]) [µM] | IC50 (A549; read-out: IC50) [µM] | IC50 (SF-268; read-out: IC50) [µM] | IC50 (NCI/ADR-RES; read-out: IC50) [µM] | IC50 (SK-OV-3; read-out: IC50) [µM] | IC50 (Du145; read-out: IC50) [µM] | IC50 (MCF7; read-out: IC50) [µM] | IC50 (HCT-116; read-out: IC50) [µM] |
| --- | --- | --- | --- | --- | --- | --- | --- | --- | --- | --- | --- | --- | --- | --- | --- | --- | --- | --- | --- | --- |
| CON([C@H]1CC[C@@]2(C)[C@H](CC[C@@H]3[C@@H]2CC[C@]2(C)[C@@H](C4=CC(=O)OC4)CC[C@]32O)C1)[C@H]1O[C@@H](CO)[C@@H](O)[C@@H](O)[C@@H]1O [21β, L-galactoside] | 1.3 | 2.6 | 1 | 0.9 | 1.4 | 1.6 | 1.6 | 2.1 | 1.8 | 2.1 | – | – | – | – | – | – | – | – | – | – |
| CON(C1CCC2(C)C(CCC3C2CCC2(C)C(C4=CC(=O)OC4)CCC32O)C1)C1OC(C(=O)O)C(O)C(O)C1O [38α, D-galacturonoside] | – | – | – | – | – | – | – | – | – | – | > 25 | > 25 | > 25 | > 25 | > 25 | > 25 | > 25 | > 25 | > 25 | > 25 |
| L-rhamnoside [16β] | 0.54 | 0.33 | > 25 | 0.7 | 3.3 | 0.35 | 4 | 0.17 | 1.8 | 0.9 | – | – | – | – | – | – | – | – | – | – |
| CON([C@H]1CC[C@@]2(C)[C@H](CC[C@@H]3[C@@H]2CC[C@]2(C)[C@@H](C4=CC(=O)OC4)CC[C@]32O)C1)[C@@H]1O[C@H](CF)[C@@H](O)[C@H](O)[C@H]1O [13β, 6-deoxy-6-fluoro-D-glucoside] | 4.6 | 1.4 | > 25 | 2 | 4.7 | 1.1 | 3.4 | 5 | 6.2 | 4.8 | – | – | – | – | – | – | – | – | – | – |
| CON(C1CCC2(C)C(CCC3C2CCC2(C)C(C4=CC(=O)OC4)CCC32O)C1)C1OC(COC2OC(CO)C(O)C(O)C2O)C(O)C(O)C1O (stereo not drawn) [35α, melibioside] | – | – | – | – | – | – | – | – | – | – | > 25 | > 25 | > 25 | > 25 | > 25 | > 25 | > 25 | > 25 | > 25 | > 25 |
| CON(C1CCC2(C)C(CCC3C2CCC2(C)C(C4=CC(=O)OC4)CCC32O)C1)C1OC(CO)C(O)C(O)C1O [25α, D-guloside] | > 25 | > 25 | – | > 25 | > 25 | > 25 | > 25 | > 25 | > 25 | > 25 | – | – | > 25 | – | – | – | – | – | – | – |
| CON(C1CCC2(C)C(CCC3C2CCC2(C)C(C4=CC(=O)OC4)CCC32O)C1)C1OC(C(=O)O)C(O)C(O)C1O [38β, D-galacturonoside] | 2.1 | 1.4 | > 25 | 2.2 | 2.2 | 1.6 | 3.1 | 1.9 | 5 | 2.7 | – | – | – | – | – | – | – | – | – | – |
| CON([C@H]1CC[C@@]2(C)[C@H](CC[C@@H]3[C@@H]2CC[C@]2(C)[C@@H](C4=CC(=O)OC4)CC[C@]32O)C1)[C@H]1O[C@@H](C)[C@@H](O)[C@@H](O)[C@@H]1O [7β, L-fucoside] | 0.35 | 0.6 | > 25 | 0.3 | 0.9 | 0.25 | 0.5 | 0.7 | 1.3 | 1.2 | – | – | – | – | – | – | – | – | – | – |
| CON([C@H]1CC[C@@]2(C)[C@H](CC[C@@H]3[C@@H]2CC[C@]2(C)[C@@H](C4=CC(=O)OC4)CC[C@]32O)C1)[C@@H]1C[C@@](C)(O)[C@@H](O)[C@H](C)O1 [30β, L-mycaroside] | 0.6 | 0.19 | > 25 | 0.6 | 1.1 | 0.35 | 1.1 | 1.1 | 1.8 | 0.6 | – | – | – | – | – | – | – | – | – | – |
| CON([C@H]1CC[C@@]2(C)[C@H](CC[C@@H]3[C@@H]2CC[C@]2(C)[C@@H](C4=CC(=O)OC4)CC[C@]32O)C1)[C@@H]1O[C@H](CO)[C@H](O)[C@@H](O)[C@@H]1O [29β, D-idoside] | 0.3 | 1.3 | > 25 | 0.37 | 1.3 | 1.5 | 1.5 | 1.3 | 0.44 | 2.3 | – | – | – | – | – | – | – | – | – | – |
| CON(C1CCC2(C)C(CCC3C2CCC2(C)C(C4=CC(=O)OC4)CCC32O)C1)C1OC(CO)C(O)C(O)C1O [28α, L-idoside] | > 25 | > 25 | – | > 25 | > 25 | > 25 | > 25 | > 25 | > 25 | > 25 | – | – | > 25 | – | – | – | – | – | – | – |
